Source: patent publication US12319699B2, “L-proline sulfonamide derivatives comprising pyrazolo[4,3-e]tetrazolo[4,5-b][1,2,4]triazine system, method of manufacturing thereof, uses thereof and pharmaceutical composition comprising the same” (UNIWERSYTET MEDYCZNY W BIALYMSTOKU, priority 2018, dated 2025)

Tests used:
[1] = tested on: DLD-1 human colorectal cancer cells; experiment: Cytotoxicity, MTT assay (Carmichael's method), cell survival; type: cell-based; conditions: DLD-1, 24-hour incubation
Description: DLD-1 human colorectal cancer cells (ATCC CCL-221, Manassas, VA, USA) were grown in DMEM (Dulbecco's Modified Eagle's Medium) supplemented with 10% fetal bovine serum (FBS), 2 mM glutamine, 50 U/ml penicillin, 50 μg/ml streptomycin at 37° C., in atmosphere containing 5% of CO2. Then the cells were counted in a hemocytometer and transferred in the amount of 1×10^6 cells per well in 1 ml of culture medium from Costar flasks (Sigma, USA) to Nunc 6-well plates (Wiesbaden, Germany). The cells were transferred using calcium-free phosphate buffer with the addition of 0.05% trypsin and 0.02% EDTA. […] Within the subsequent 24 hours the cells covered at least 80% of the surface of each plate well. […]
(§1) Cytotoxicity of the examined compounds according to the invention was measured by Carmichael's method (Carmichael J et al, Cancer Res., 1987, 47:943-946) and cell viability was determined using the tetrazolium salt (MT) in MTT assay. […] In a cell lysate prepared in such manner absorbance at 630 nm was measured. The result of absorbance obtained in the control cell cultures was assumed to be 100%. The viability of cells incubated in the presence of the examined compounds was expressed as percentage of the control values. The significance level p was determined by the nonparametric Mann-Whitney U test by means of SigmaStat software. […]

[2] = tested on: HT-29 human colorectal cancer cells; experiment: as above; type: cell-based; conditions: HT-29, 24-hour incubation
Description: HT-29 human colorectal cancer cells (ATCC HTB-38, Manassas, VA, USA) were cultured in McCoy's 5A medium supplemented with 10% fetal bovine serum (FBS), 2 mM glutamine, 50 U/ml penicillin, 50 μg/ml of streptomycin at 37° C., in atmosphere containing 5% CO2. Subsequently, the cells were counted in a hemocytometer and were transferred in the amount of 1×10^6 cells per well in 1 ml of culture medium from Costar flasks (Sigma, USA) to Nunc 6-well plates (Wiesbaden, Germany). The cells were transferred using calcium-free phosphate buffer with the addition of 0.05% trypsin and 0.02% EDTA. […] Within the subsequent 24 hours the cells covered at least 80% of the surface of each plate well. […]
as §1

[3] = tested on: DLD-1 xenografts; experiment: Tumour growth in mice with xenografts; type: in vivo; conditions: mice with DLD-1 xenografts
Description: (§2) The second stage of the study was carried out with the use of animals (Cby.Cg-Foxn1nu/J mice, females) (Jackson Laboratory, USA). […] All procedures were carried out in accordance with the guidelines for experiments in animals and a protocol approved by the Local Ethics Committee (Resolution No. August 2018).
(§3) The studies in in vivo conditions were carried out in the Centre of Experimental Medicine of the Medical University of Bialystok. It is a modern institution which ensures a high standard of SPF barrier animal facilities. Animals are housed in a room with […], in the optimal temperature of 22° C., 55% air humidity, with fifteen air changes per hour (with the speed not exceeding 0.3 m/s) and 12:12 light-dark cycle. The animals were under 24-hour monitoring and period controls of both the animals (in accordance with FELASA recommendations) and the rooms in which they were housed were carried out. The Centre for Experimental Medicine has a Good Laboratory Practice (GLP) certificate.
(§4) During the initial studies the mice were divided into two groups.
(§5) After the first week, when tumours reached about 5 mm in diameter, i.e. the size which according to literature data is suitable for carrying out further steps of examination, the mice began receiving subcutaneous injections of the sulfonamide derivative of 7-methyl-5-phenyl-pyrazolo[4,3-e]tetrazolo[4,5-b][1,2,4]triazine comprising 4-hydroxy-L-proline methyl ester in the sulfonamide group according to the invention (the compound of Formula 3) in a dose of 50 μg/kg once a day for two weeks. The moment of administration of the compound was marked as time 0. The control group was constituted by animals that received subcutaneously 50 μl of 10% DMSO in PBS (the solvent for the compound of Formula 3). Before the administration of the sulfonamide derivative of 7-methyl-5-phenyl-pyrazolo[4,3-e]tetrazolo[4,5-b][1,2,4]triazine comprising 4-hydroxy-L-proline methyl ester in the sulfonamide group according to the invention (time 0), after the first week (time 1) and the second week (time 2) of administering this compound, the sizes of tumours were measured in two dimensions by means of a digital calliper. The volume of tumours was expressed in mm3 in accordance with the calculations that were described by Feldman et al. (Feldman J P. Goldwasser R. Mark S. Schwartz J. Orion I. JAQM. 2009.4.455-462).

[4] = tested on: HT-29 xenografts; experiment: Tumour growth in mice with xenografts; type: in vivo; conditions: mice with HT-29 xenografts
Description: as §2, §3, §4, §5

[5] = Body weight of xenograft mice after two-week therapy; type: in vivo; conditions: mice with DLD-1 and HT-29 xenografts, 50 μg/kg s.c. once a day
Description: as §2
as §5, with “The control group was constituted by animals that received subcutaneously 50 μl of 10% DMSO in PBS (the solvent for the compound of Formula 3).” left out, “The volume of tumours was expressed in mm3 in accordance with the calculations that were described by Feldman et al. (Feldman J P. Goldwasser R. Mark S. Schwartz J. Orion I. JAQM. 2009.4.455-462).” left out
Additionally, the effect of the compound of Formula 3 on the body weight of the animals after the two-week therapy was assessed.

[6] = Haematological analysis of xenograft mice after two-week therapy; type: in vivo; conditions: mice with DLD-1 and HT-29 xenografts, 50 μg/kg s.c. once a day
Description: as §2
as §5, with “The control group was constituted by animals that received subcutaneously 50 μl of 10% DMSO in PBS (the solvent for the compound of Formula 3).” left out, “The volume of tumours was expressed in mm3 in accordance with the calculations that were described by Feldman et al. (Feldman J P. Goldwasser R. Mark S. Schwartz J. Orion I. JAQM. 2009.4.455-462).” left out

[7] = 50 μg/kg s.c. once a day for two weeks, p<0.05
[8] = 50 μg/kg s.c. once a day, after the second week, p<0.001

SMILES	IC50 [1]	IC50 [2]	tumour weight post mortem vs control [3, 7]	inhibition of tumour growth (tumour volume) vs control [3, 8]	tumour weight post mortem vs control [4, 7]	inhibition of tumour growth (tumour volume) vs control [4, 8]	effect on body weight of the animals vs control [5]	haematological parameters (WBC, RBC, PLT, HCT, HGB, MCV, MCH, MCHC) [6]
COC(=O)C1CC(O)CN1S(=O)(=O)c1ccc(-n2nc(C)c3nc4nnnn4nc32)cc1 (stereo not shown) [Compound of Formula 3, Methyl 4-hydroxy-1-[4-(7-methyl-5H-pyrazolo[4,3-e]tetrazolo[4,5-b][1,2,4]triazyn-5-yl)phenylsulfonyl]pyrrolidine-2-carboxylate]	3.1 ± 0.02 µM	3.13 ± 0.02 µM	Statistically significant reduction in tumour weight	statistically significant inhibition of tumour growth	Statistically significant reduction in tumour weight	statistically significant inhibition of tumour growth	No significant differences	did not reveal any statistically significant changes
COC(=O)C1CCCN1S(=O)(=O)c1ccc(-n2nc(C)c3nc4nnnn4nc32)cc1 (stereo not shown) [Compound of Formula 2, Methyl 1-[4-(7-methyl-5H-pyrazol[4,3-e]tetrazolo[4,5-b][1,2,4]triazyn-5-yl)phenylsulfonyl]pyrrolidine-2-carboxylate]	1.1 ± 0.01 µM	1.73 ± 0.03 µM						
